The record followed here is patent US20240342117A1, “Inhalable Epinephrine Formulation” (De Motu Cordis Pty Ltd, priority 2022, published 2024).

For this series the following is noted: over 4 weeks of storage.

Turning to `CNC[C@H](O)c1ccc(O)c(O)c1` [micronized epinephrine bitartrate, epinephrine bitartrate], the tendency to agglomerate result is given as “naturally tends to agglomerate”.
